Measurements published in patent publication US20200064357A1, “METHODS FOR DETERMINING AND MONITORING GASTROINTESTINAL INFLAMMATION” (Protagonist Therapeutics, Inc., priority 2016, published 2020).

Test system: Sprague-Dawley rats
Test: Biomarkers in colon of TNBS-induced acute colitis rats (Example E1)
Format: in vivo, rat
Details: protein by ELISA, vs vehicle treated controls, Peptide 993 65 mg/kg/day; for IL-22 level in colon / MPO level in colon: Peptide 980 37 mg/kg/day
Description: The effect of treatment with peptide inhibitors of IL23R on inflammatory markers associated with IL23 signaling was examined in a rat model of acute colitis. Acute colitis was induced in Sprague-Dawley rats by a single intra-rectal instillation of 2,4,6-Trinitrobenzenesulfonic acid (TNBS) followed by efficacy analysis at day seven. Pharmacodynamic (PD) biomarkers were examined using enzyme-linked immunosorbent assay (ELISA), quantitative reverse transcription polymerase chain reaction, or immunohistochemistry analysis of colon, feces, or serum samples obtained from colitic rats treated with Peptide 993, Peptide 1185, or Peptide 980.
Acute colitis was induced by providing 7-week-old female Sprague-Dawley rats with various dosages of 64 mg/kg or 48 mg/kg of TNBS in 50% ethanol (TNBS/ethanol) administered intrarectally at Day 0. Peptide inhibitors were administered orally two or three times a day at various dosages and were provided in drinking water at various dosages, for 8 days starting approximately 24 hours (Day −1) prior TNBS inoculation.
Levels of a number of inflammatory biomarkers were examined in the colons. The distal colon tissue samples, designated for protein expression analysis, were flash frozen after collection. For protein extraction, the samples were thawed, weighed and homogenized in the extraction buffer (PBS pH 7.2 supplemented with Protease Inhibitors, 3× volume:weight). The homogenates were centrifuged at 13 krpm at 4° C. for 15 minutes, a total of two times to remove the debris. The supernatants were saved in multiple aliquots in −80° C. and subsequently used for protein expression analysis on ELISA. The total protein in each sample was quantified using BCA assay. MPO, IL-10, IL-6, IL-17A and IL-22 biomarker protein expression in the distal colon samples was analyzed using commercially available rat ELISA kits.

Row | Compound | IL-22 level in colon | MPO level in colon | IL-17A level in colon
1 | Ac-cyclo[[Abu]-QTWQC]-[Phe[4-(2-aminoethoxy)]]-[2-Nal]-[4-amino-4-carboxy-tetrahydropyran]-ENN-NH2 [Peptide 980] | reduced | reduced | 
2 | CC(=O)NCCCCC(NC(=O)C1(NC(=O)C(Cc2ccc3ccccc3c2)NC(=O)C(Cc2ccc(OCCN)cc2)NC(=O)C2NC(=O)C(CCC(N)=O)NC(=O)C(Cc3c[nH]c4ccccc34)NC(=O)C(C(C)O)NC(=O)C(CC(N)=O)NC(=O)C(NC(C)=O)C(C)(C)SSC2(C)C)CCOCC1)C(=O)NC(CC(N)=O)C(=O)NC(CC(N)=O)C(N)=O (centres unmarked) [Peptide 1185, Ac-cyclo[[Pen]-NTWQ-[Pen]]-[Phe[4-(2-aminoethoxy)]]-[2-Nal]-[4-amino-4-carboxy-tetrahydropyran]-[Lys(Ac)]-NN-NH2] | did not significantly reduce | did not significantly reduce | did not significantly reduce
